From EP4563146A1 (IRBM S.P.A., priority 2023, dated 2025)
Where two headings read alike, the source gives them in different places.

System: ZIKV replicon
Test: ZIKV replication inhibition assay (NanoLuc replicon in Vero cells)
Conditions: Zika virus, Vero, 72 h
[1] = read-out: ZIKA Cell_Nanoluc, Vero cells with stable ZIKV replicon, 72 h, Nano-Glo readout

Compound | EC50 [1] [µM] | EC50 (read-out: ZIKA Cell_Nanoluc) [µM]
Cc1nc(CC(=O)Nc2cc(NC(=O)[N-]c3c[n+](Cc4ccccn4)no3)cc(C(F)(F)F)c2)cs1 [Example 41, ((3-(2-(2-Methylthiazol-4-yl)acetamido)-5-(trifluoromethyl)phenyl)-carbamoyl)(3-(pyridin-2-ylmethyl)-1,2,3-oxadiazol-3-ium-5-yl)amide] | 1 to 20 | –
Nc1ccc(CC(=O)Nc2cc(NC(=O)[N-]c3c[n+](Cc4ccccn4)no3)cc(C(F)(F)F)c2)cn1 [Example 42] | – | 1 to 20
O=C(CS(=O)(=O)c1ccccc1)Nc1cc(NC(=O)[N-]c2c[n+](Cc3ccccn3)no2)cc(C(F)(F)F)c1 [Example 43] | – | 1 to 20
O=C([N-]c1c[n+](Cc2ccccn2)no1)Nc1cc(NC(=O)c2ccon2)cc(C(F)(F)F)c1 [Example 44] | – | 1 to 20
O=C([N-]c1c[n+](Cc2ccccn2)no1)Nc1cc(NC(=O)c2cnccn2)cc(C(F)(F)F)c1 [Example 45] | – | 1 to 20
O=C(C#Cc1ccccc1)Nc1cc(NC(=O)[N-]c2c[n+](Cc3ccccn3)no2)cc(C(F)(F)F)c1 [Example 46] | – | 1 to 20
O=C([N-]c1c[n+](Cc2ccccn2)no1)Nc1cc(NC(=O)C2Cc3ccccc32)cc(C(F)(F)F)c1 (stereo not drawn) [Example 47] | – | 1 to 20
CC(C)n1ccc(C(=O)Nc2cc(NC(=O)[N-]c3c[n+](Cc4ccccn4)no3)cc(C(F)(F)F)c2)n1 [Example 48] | – | 1 to 20
CN1CC(C(=O)Nc2cc(NC(=O)[N-]c3c[n+](Cc4ccccn4)no3)cc(C(F)(F)F)c2)C1 [Example 49] | – | 1 to 20
O=C([N-]c1c[n+](Cc2ccccn2)no1)Nc1cc(NC(=O)C2CC2c2ccccc2)cc(C(F)(F)F)c1 (stereo not drawn) [Example 50] | – | 0.1 to 1
O=C([N-]c1c[n+](Cc2ccccn2)no1)Nc1cc(NC(=O)C23CC(C(=O)O)(C2)C3)cc(C(F)(F)F)c1 [Example 52, ((3-(3-Carboxybicyclo[1.1.1]pentane-1-carboxamido)-5-(trifluoromethyl)phenyl)-carbamoyl)(3-(pyridin-2-ylmethyl)-1,2,3-oxadiazol-3-ium-5-yl)amide] | 1 to 20 | –
O=C([N-]c1c[n+](Cc2ccccn2)no1)Nc1cc(NCCc2ccccc2)cc(C(F)(F)F)c1 [Example 53, ((3-(Phenethylamino)-5-(trifluoromethyl)-phenyl)carbamoyl)(3-(pyridin-2-ylmethyl)-1,2,3-oxadiazol-3-ium-5-yl)amide] | 1 to 20 | –
O=C(CC1CCC1)Nc1cc(NC(=O)[N-]c2c[n+](Cc3ccccn3)no2)cc(C(F)(F)F)c1 [Example 54] | – | 1 to 20
NCc1ccc(C[n+]2cc([N-]C(=O)Nc3cc(NC(=O)Cc4ccccc4)cc(C(F)(F)F)c3)on2)cc1 [Example 56, (3-(4-(Aminomethyl)benzyl)-1,2,3-oxadiazol-3-ium-5-yl)((3-(2-phenylacetamido)-5-(trifluoromethyl)phenyl)carbamoyl)amide] | 1 to 20 | –
Cc1cc(NC(=O)Cc2ccccc2)cc(NC(=O)[N-]c2c[n+](Cc3ccccn3)no2)c1 [Example 57, ((3-Methyl-5-(2-phenylacetamido)phenyl)carbamoyl)(3-(pyridin-2-ylmethyl)-1,2,3-oxadiazol-3-ium-5-yl)amide] | > 20 | –
O=C(Cc1ccccc1)Nc1cc(Cl)cc(NC(=O)[N-]c2c[n+](Cc3ccccn3)no2)c1 [Example 58, ((3-Chloro-5-(2-phenylacetamido)phenyl)carbamoyl)(3-(pyridin-2-ylmethyl)-1,2,3-oxadiazol-3-ium-5-yl)amide] | 1 to 20 | –
O=C(CC1CC2CC1C2)Nc1cc(NC(=O)[N-]c2c[n+](Cc3ccccn3)no2)cc(C(F)(F)F)c1 (stereo not drawn) [Example 63, ((3-(2-(Bicyclo[2.1.1]hexan-2-yl)acetamido)-5-(trifluoromethyl)phenyl)carbamoyl)(3-(pyridin-2-ylmethyl)-1,2,3-oxadiazol-3-ium-5-yl)amide] | 1 to 20 | –
O=C([N-]c1c[n+](Cc2ccccn2)no1)Nc1cc(NC(=O)c2cc3n(n2)CCS(=O)(=O)C3)cc(C(F)(F)F)c1 [Example 64] | – | > 20

Compound | EC50 [1] [µM] | EC50 (read-out: ZIKA Cell_Nanoluc) [µM]
O=C(Cn1c(C(F)F)nc2ccccc21)Nc1cc(NC(=O)[N-]c2c[n+](Cc3ccccn3)no2)cc(C(F)(F)F)c1 [Example 65] | – | > 20
O=C([N-]c1c[n+](Cc2ccccn2)no1)Nc1cc(NC(=O)C23CCC(O)(CC2)C3)cc(C(F)(F)F)c1 [Example 66] | – | > 20
Cc1cccc2c1OCC2C(=O)Nc1cc(NC(=O)[N-]c2c[n+](Cc3ccccn3)no2)cc(C(F)(F)F)c1 (stereo not drawn) [Example 67] | – | 1 to 20
O=C([N-]c1c[n+](Cc2ccccn2)no1)Nc1cc(NC(=O)C2CC(Cc3ccccc3)C2)cc(C(F)(F)F)c1 (stereo not drawn) [Example 68] | – | 1 to 20
O=C([N-]c1c[n+](Cc2ccccn2)no1)Nc1cc(NC(=O)[C@H]2C[C@](O)(c3ccccn3)C2)cc(C(F)(F)F)c1 [Example 69] | – | > 20
Cc1ccc(CN2CCC(C(=O)Nc3cc(NC(=O)[N-]c4c[n+](Cc5ccccn5)no4)cc(C(F)(F)F)c3)CC2)o1 [Example 70] | – | > 20
N#Cc1ccn(C2(C(=O)Nc3cc(NC(=O)[N-]c4c[n+](Cc5ccccn5)no4)cc(C(F)(F)F)c3)CC2)n1 [Example 71] | – | 1 to 20
Cn1cnnc1COCC(=O)Nc1cc(NC(=O)[N-]c2c[n+](Cc3ccccn3)no2)cc(C(F)(F)F)c1 [Example 72] | – | > 20
O=C(CCOC1CCCC1)Nc1cc(NC(=O)[N-]c2c[n+](Cc3ccccn3)no2)cc(C(F)(F)F)c1 [Example 73] | – | 1 to 20
O=C([N-]c1c[n+](Cc2ccccn2)no1)Nc1cc(NC(=O)c2cncn2C2CC2)cc(C(F)(F)F)c1 [Example 75] | – | > 20
O=C([N-]c1c[n+](Cc2ccccn2)no1)Nc1cc(NC(=O)C(F)(F)CN2CCCC2)cc(C(F)(F)F)c1 [Example 76] | – | > 20
O=C([N-]c1c[n+](Cc2ccccn2)no1)Nc1cc(NC(=O)C2CN(C3CC3)C2)cc(C(F)(F)F)c1 [Example 77] | – | > 20
CC(c1ccc(C(=O)Nc2cc(NC(=O)[N-]c3c[n+](Cc4ccccn4)no3)cc(C(F)(F)F)c2)cc1)S(N)(=O)=O (stereo not drawn) [Example 78, (3-(Pyridin-2-ylmethyl)-1,2,3-oxadiazol-3-ium-5-yl)((3-(4-(1-sulfamoylethyl)-benzamido)-5-(trifluoromethyl)phenyl)carbamoyl)amide] | > 20 | –
O=C([N-]c1c[n+](Cc2ccccn2)no1)Nc1cc(NC(=O)c2ccc3c(n2)CCO3)cc(C(F)(F)F)c1 [Example 79] | – | 1 to 20
O=C([N-]c1c[n+](Cc2ccccn2)no1)Nc1cc(NC(=O)C2CCn3cncc3C2)cc(C(F)(F)F)c1 (stereo not drawn) [Example 80, (3-(Pyridin-2-ylmethyl)-1,2,3-oxadiazol-3-ium-5-yl)((3-(5,6,7,8-tetrahydroimidazo [1,5-a]pyridine-7-carboxamido)-5-(trifluoromethyl)phenyl)carbamoyl)amide] | > 20 | –
O=C([N-]c1c[n+](Cc2ccccn2)no1)Nc1cc(NC(=O)c2ccn3c2COCC3)cc(C(F)(F)F)c1 [Example 81, ((3-(3,4-Dihydro-1H-pyrrolo[2,1-c][1,4]oxazine-8-carboxamido)-5-(trifluoromethyl)-phenyl)carbamoyl)(3-(pyridin-2-ylmethyl)-1,2,3-oxadiazol-3-ium-5-yl)amide] | 1 to 20 | –
O=C(CCCCS(=O)(=O)N1CCCCC1)Nc1cc(NC(=O)[N-]c2c[n+](Cc3ccccn3)no2)cc(C(F)(F)F)c1 [Example 82] | – | > 20
O=C([N-]c1c[n+](Cc2ccccn2)no1)Nc1cc(NC(=O)C2(Oc3ccc(Cl)cc3)COC2)cc(C(F)(F)F)c1 [Example 83] | – | 1 to 20
